Where two headings read alike, the source gives them in different places.
Columns and labels:
falcipain-2 = falcipain-2 (Plasmodium falciparum (isolate 3D7), UniProt Q8I6U4); experiment: Fluorometric assay for falcipain-2 activity; type: biochemical
Description: Recombinant falcipain-2 was prepared according to the method described by Shenai et al. (J Biol Chem.; 2000, 275(37): 29000-10) and Kumar et al. (Biochem Biophys. Res Commun. 2004, 317(1), 38-45) with slight modification. Briefly, Escherichia coli M15 containing pQE30-FP-2 plasmid were grown to mid-log phase and induced with isopropyl-1-thio-b-D-galactopyranoside (IPTG, 0.5 mM) for 5 h at 37° C. Cells were harvested, washed with ice-cold 100 mM Tris-Cl, 10 mM EDTA, pH 7.4, sonicated (12 cycles of 10 s each, with cooling for 10 s between the cycles), and centrifuged at 15,000 rpm for 45 min at 4° C. The pellet was washed twice with 2.5 M urea, 20 mM Tris-Cl2.5% Triton X-100, pH 8.0; centrifuged at 15,000 rpm for 45 min at 4° C.; and solubilized in 6 M guanidine HCl, 20 mM Tris-Cl, 250 mM NaCl, 20 mM imidazole, pH 8.0 (5 ml/g of inclusion body pellet) at RT for 60 min with gentle stirring. Insoluble material was separated by centrifuging at 15,000 rpm for 60 min at 4° C. For the purification of the recombinant protein, the supernatant was incubated overnight at 4° C. with a nickel-nitrilotriacetic acid (Ni-NTA) resin. The resin was loaded on a column and washed with 10 bed volumes each of 6 M guanidine HCl, 20 mM Tris-Cl, 250 mM NaCl, pH 8.0; 8 M urea, 20 mM Tris-Cl, 500 mM NaCl, pH 8.0; and 8 M urea, 20 mM Tris-Cl, 30 mM imidazole, pH 8.0. Bound protein was eluted with 8 M urea, 20 mM Tris-Cl, 1 M imidazole, pH 8.0 and quantified by the Biocinchoninic acid assay. For the refolding, the fractions containing falcipain-2 protein were pooled in ice-cold refolding buffer: 100 mM diluted in Tris-Cl, 1 mM EDTA, 20% glycerol, 250 mM L-arginine, 1 mM GSH, 1 mM GSSG, pH 8.0 was added in a 100 fold dilution. The mixture was incubated with moderate stirring at 4° C. for 24 h, and concentrated to 25 ml using a stirred cell with a 10-kDa cut-off membrane (Pellicon XL device, Millipore) at 4° C. […] The purified and concentrated protein was quantified using Biocinchoninic acid assay. • b) Fluorometric Assay for Falcipain-2 activity:
For screening of falcipain-2 inhibitors, a 96-well plate fluorometric assay was developed following a protocol described by Kumar et al. (Biochem Biophys Res Commun.; 2004, 317(1), 38-45) Briefly, reaction was set up in a 200 ml reaction mixture containing 100 mM NaOAc, 10 mM DTT, 6 mg enzyme and different concentrations of inhibitors, pH 5.5. 10 mM of fluorogenic substrate benzyloxycarbonyl-Phe-Arg-7-amino-4-methylcoumarin hydrochloride (ZFR-AMC) was added, and the release of 7-amino-4-methylcoumarin (AMC) was monitored (excitation 355 nm; emission 460 nm) over 30 min at RT in Perkin Elmer Victor3 multi-label counter. […] The IC50 values were calculated from curve fittings by software Workout V 2.5.

A549 human cells = experiment: In vitro toxicity on mammalian cell culture; type: cell-based
P. falciparum 3D7 = experiment: P. falciparum growth inhibition assay, 3D7 strain; type: cell-based; settings: Plasmodium falciparum, read-out: EC50 on P. falciparum 3D7
Description: (§1) P. falciparum strain 3D7, Dd2 and 7G8 were cultured in RPMI media (Invitrogen) supplemented with 0.5% albumax and 4% haematocrit using a protocol described previously [Trager and Jensen (Science,1976; 193:673-675)]. Cultures were synchronized by repeated sorbitol treatment following Lambros and Vanderberg (J Parasitol; 1979; 65:418-420). Each growth inhibition assay was performed in triplicate and the experiment was repeated twice. Each well contained 0.5 ml of complete media [RPMI (invitrogen) with 0.5% albumax], 4% haematocrit and the parasitaemia adjusted to ˜1%; the compound added to the parasite cultures to desired final concentrations (0-100 µM) and same amount of solvent (DMSO) was added to the control wells. The cultures were allowed to grow further for 48 h. Parasite growth was assessed by DNA fluorescent dye-binding assay using SYBR green (Sigma) following Smilkstein et al (Antimicrob Agents Chemother.; 2004, 48, 1803-1806). • f) In Vitro Toxicity Assay on CHO Cells

P. falciparum Dd2 = experiment: P. falciparum growth inhibition assay, Dd2 strain; type: cell-based; settings: Plasmodium falciparum
Description: as §1

P. falciparum 7G8 = experiment: P. falciparum growth inhibition assay, 7G8 strain; type: cell-based; settings: Plasmodium falciparum
Description: as §1

P. berghei = experiment: In vivo parasiticidal assay with P. berghei mice malaria model; settings: for Complete Protection - Mice with complete parasite clearance / Survival after treatment: 4 doses of 12.5 mg/Kg of body weight, infected BALB/c mice
Description: Five groups of female BALB/c mice, 6-8 weeks of age (four mice/group) were used for testing the in vivo parsiticidal and protective efficacy of different drug treatments. Mice were injected IP with 1×10^6 P. berghei infected erythrocytes. The drug treatment was initiated 5 days after inducing parasitemia; mice in a group were given 4 doses of a compound at 12.5 mg/Kg of body weight. Control mice were given solvent alone. The parasitemia was assessed everyday in thin smears of Giemsa stained RBCs from tail blood of each mouse, by counting parasitized erythrocytes in more than 10,000 erythrocytes. Time of death of the mice in each group was also monitored.

Sequence of falcipain-2 (Q8I6U4 244-484 limits assumed): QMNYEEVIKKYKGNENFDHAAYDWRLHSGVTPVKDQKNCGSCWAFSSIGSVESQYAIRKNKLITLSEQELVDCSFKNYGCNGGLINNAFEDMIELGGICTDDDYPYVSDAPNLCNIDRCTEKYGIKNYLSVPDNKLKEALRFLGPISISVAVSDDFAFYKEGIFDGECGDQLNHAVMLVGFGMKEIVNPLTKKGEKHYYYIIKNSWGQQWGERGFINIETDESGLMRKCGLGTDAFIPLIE

`CCOP(=O)(/C=C/C(NC(=O)[C@H](CO[C@H]1O[C@@H]2O[C@@]3(C)CC[C@H]4[C@H](C)CC[C@@H]([C@H]1C)[C@@]24OO3)NC(=O)OCc1ccccc1)c1ccccc1)OCC` (mixture of isomers) [Compound 1, Benzyl ((2S)-1-(((E)-3-(diethoxyphosphoryl)-1-phenylallyl)amino)-1-oxo-3-(((3R,5aS,6R, 8aS,9R,10S,12R,12aR)-3,6,9-trimethyldecahydro-12H-3,12-epoxy[1,2]dioxepino[4,3-i]isochromen-10-yl)oxy)propan-2-yl)carbamate] was tested, and the IC50 (falcipain-2) was over 100000 nM and the “activity against falcipain-2 enzyme (in words)” value (shortened to “activity”) (falcipain-2) was “inactive”.

For `CCOP(=O)(/C=C/C(NC(=O)[C@H](Cc1ccccc1)NC(=O)[C@H](CO[C@H]1O[C@@H]2O[C@@]3(C)CC[C@H]4[C@H](C)CC[C@@H]([C@H]1C)[C@@]24OO3)NC(=O)OCc1ccccc1)c1ccccc1)OCC` (mixture of isomers) [Compound 2, Benzyl ((2S)-1-(((2S)-1-(((E)-3-(diethoxyphosphoryl)-1-phenylallyl)amino)-1-oxo-3-phenylpropan-2-yl)amino)-1-oxo-3-(((3R,5aS,6R,8aS,9R,10S,12R,12 aR)-3,6,9-trimethyldeca hydro-12H-3,12-epoxy[1,2]dioxepino[4,3-i]isochromen-10-yl)oxy)propan-2-yl)carbamate], the EC50 (A549 human cells; Homo sapiens, A549, in vitro toxicity) was 14600 ± 175 nM, the EC50 (P. falciparum 3D7; 3D7, 48 h) was 2.7 nM and the EC50 (P. falciparum Dd2; DD2, read-out: EC50 on P. falciparum Dd2) was 1.9 nM. The EC50 (P. falciparum 7G8; 7G8, read-out: EC50 on P. falciparum 7G8) was 0.47 nM.

Compound `CCOP(=O)(/C=C/[C@@H](NC(=O)[C@H](CC(C)C)NC(=O)[C@H](CO[C@H]1O[C@@H]2OC3(C)CC[C@H]4[C@H](C)CC[C@@H]([C@H]1C)[C@@]24OO3)NC(=O)OCc1ccccc1)c1ccccc1)OCC` (stereo in doubt) [Compound 3a, Benzyl ((S)-1-(((S)-1-(((R,E)-3-(diethoxyphosphoryl)-1-phenylallyl)amino)-4-methyl-1-oxopentan-2-yl)amino)-1-oxo-3-(((3R,5aS,6R,8aS,9R,10S,12R,12aR)-3,6,9-trimethyldeca hydro-12H-3,12-epoxy[1,2]dioxepino[4,3-i]isochromen-10-yl)oxy)propan-2-yl)carbamate] has an EC50 (P. falciparum 3D7; 3D7, 48 h) of 10.9 nM.

`CCOP(=O)(/C=C/[C@H](NC(=O)[C@H](CC(C)C)NC(=O)[C@H](CO[C@H]1O[C@@H]2OC3(C)CC[C@H]4[C@H](C)CC[C@@H]([C@H]1C)[C@@]24OO3)NC(=O)OCc1ccccc1)c1ccccc1)OCC` (stereo in doubt) [Compound 3b, Benzyl ((S)-1-(((S)-1-(((S,E)-3-(diethoxyphosphoryl)-1-phenylallyl)amino)-4-methyl-1-oxopentan-2-yl)amino)-1-oxo-3-(((3R,5aS,6R,8aS,9R,10S,12R,12aR)-3,6,9-trimethyldeca hydro-12H-3,12-epoxy[1,2]dioxepino[4,3-i]isochromen-10-yl)oxy)propan-2-yl)carbamate] gave an EC50 (P. falciparum 3D7; 3D7, 48 h) of 16.7 nM.

`CCOP(=O)(/C=C/C(NC(=O)[C@@H]1C[C@@H](O[C@H]2O[C@@H]3OC4(C)CC[C@H]5[C@H](C)CC[C@@H]([C@H]2C)[C@@]35OO4)CN1C(=O)OCc1ccccc1)c1ccccc1)OCC` (stereo in doubt) [Compound 4, Benzyl (2S,4R)-2-(((E)-3-(diethoxyphosphoryl)-1-phenylallyl)carbamoyl)-4-(((3R,5aS, 6R,8aS,9R,10S,12R,12aR)-3,6,9-trimethyldecahydro-12H-3,12-epoxy[1,2]dioxepino[4,3-i]isochromen-10-yl)oxy)pyrrolidine-1-carboxylate] was tested, and the “activity” value (falcipain-2) was “inactive”.

For `CCOP(=O)(/C=C/[C@@H](NC(=O)[C@H](CC(C)C)NC(=O)[C@@H]1C[C@@H](O[C@H]2O[C@@H]3OC4(C)CC[C@H]5[C@H](C)CC[C@@H]([C@H]2C)[C@@]35OO4)CN1C(=O)OCc1ccccc1)c1ccccc1)OCC` (stereo in doubt) [Compound 5a, Benzyl (2S,4R)-2-(((S)-1-(((R,E)-3-(diethoxyphosphoryl)-1-phenylallyl)amino)-4-methyl-1-oxopentan-2-yl)carbamoyl)-4-(((3R,5aS,6R,8aS,9R,10S,12R,12aR)-3,6,9-trimethyldeca hydro-12H-3,12-epoxy[1,2]dioxepino[4,3-i]isochromen-10-yl)oxy)pyrrolidine-1-carboxylate], the EC50 (P. falciparum 3D7; 3D7, 48 h) was 1.04 nM.

For `CCOP(=O)(/C=C/[C@H](NC(=O)[C@H](CC(C)C)NC(=O)[C@@H]1C[C@@H](O[C@H]2O[C@@H]3OC4(C)CC[C@H]5[C@H](C)CC[C@@H]([C@H]2C)[C@@]35OO4)CN1C(=O)OCc1ccccc1)c1ccccc1)OCC` (stereo in doubt) [Compound 5b, Benzyl (2S,4R)-2-(((S)-1-(((S,E)-3-(diethoxyphosphoryl)-1-phenylallyl)amino)-4-methyl-1-oxopentan-2-yl)carbamoyl)-4-(((3R,5aS,6R,8aS,9R,10S,12R,12aR)-3,6,9-trimethyldeca hydro-12H-3,12-epoxy[1,2]dioxepino[4,3-i]isochromen-10-yl)oxy)pyrrolidine-1-carboxylate], the EC50 (P. falciparum 3D7; 3D7, 48 h) was 6.12 nM.

With `CCOP(=O)(/C=C/C(NC(=O)[C@H](Cc1ccccc1)NC(=O)[C@@H]1C[C@@H](O[C@H]2O[C@@H]3OC4(C)CC[C@H]5[C@H](C)CC[C@@H]([C@H]2C)[C@@]35OO4)CN1C(=O)OCc1ccccc1)c1ccccc1)OCC` (stereo in doubt) [Compound 6, Benzyl (2S,4R)-2-(((2S)-1-(((E)-3-(diethoxyphosphoryl)-1-phenylallyl)amino)-1-oxo-3-phenylpropan-2-yl)carbamoyl)-4-(((3R,5aS,6R,8aS,9R,10S,12R,12aR)-3,6,9-trimethyldecahydro-12H-3,12-epoxy[1,2]dioxepino[4,3-i]isochromen-10-yl)oxy)pyrrolidine-1-carboxylate] the “activity” value (falcipain-2) was “inactive”.

In the case of `C[C@@H]1CC[C@H]2[C@@H](C)C(=O)O[C@@H]3O[C@@]4(C)CC[C@@H]1[C@]32OO4` [Artemisinin, reference compound], the “Complete Protection - Mice with complete parasite clearance” value (P. berghei) is reported as 0% of treated mice, the Survival after treatment (P. berghei) is reported as 15 to 25 days and the EC50 (P. falciparum 3D7; 3D7, chloroquine-sensitive strain, in vitro culture, 48 h) is reported as about 27 nM. The EC50 (P. falciparum Dd2; DD2, Chloroquine, Pyrimethamine and Mefloquine resistant strain, in vitro culture, read-out: EC50 on P. falciparum Dd2) was about 15 nM and the EC50 (P. falciparum 7G8; 7G8, Chloroquine and Pyrimethamine resistant strain, in vitro culture, read-out: EC50 on P. falciparum 7G8) was about 18 nM.

In the case of `CCOP(=O)(/C=C/C(NC(=O)[C@H](Cc1ccccc1)NC(=O)[C@H](CO[C@H]1O[C@@H]2O[C@@]3(C)CC[C@H]4[C@H](C)CC[C@@H]([C@H]1C)[C@@]24OO3)NC(=O)OCc1ccccc1)c1ccccc1)OCC` (stereo partly drawn) [Compound 2, Benzyl ((2S)-1-(((2S)-1-(((E)-3-(diethoxyphosphoryl)-1-phenylallyl)amino)-1-oxo-3-phenylpropan-2-yl)amino)-1-oxo-3-(((3R,5aS,6R,8aS,9R,10S,12R,12 aR)-3,6,9-trimethyldeca hydro-12H-3,12-epoxy[1,2]dioxepino[4,3-i]isochromen-10-yl)oxy)propan-2-yl)carbamate], the “in vitro toxicity on A549 human cells (in words)” value (A549 human cells) is reported as “non-toxic”, the “protection in treated group of mice” value (P. berghei; 12.5 mg/kg of body weight) is reported as 100% and the “Complete Protection - Mice with complete parasite clearance” value (P. berghei) is reported as 80% of treated mice. It also gave a Survival after treatment (P. berghei) of over 60 days.

Compound `CCOP(=O)(/C=C/[C@@H](NC(=O)[C@H](Cc1ccccc1)NC(=O)[C@H](CO[C@H]1O[C@@H]2O[C@@]3(C)CC[C@H]4[C@H](C)CC[C@@H]([C@H]1C)[C@@]24OO3)NC(=O)OCc1ccccc1)c1ccccc1)OCC` [Compound 2a, Benzyl ((S)-1-(((S)-1-(((R,E)-3-(diethoxyphosphoryl)-1-phenylallyl)amino)-1-oxo-3-phenylpropan-2-yl)amino)-1-oxo-3-(((3R,5aS,6R,8aS,9R,10S,12R,12aR)-3,6,9-trimethyldeca hydro-12H-3,12-epoxy[1,2]dioxepino[4,3-i]isochromen-10-yl)oxy)propan-2-yl)carbamate] has an EC50 (P. falciparum 3D7; 3D7, 48 h) of 0.95 nM.

Compound `CCOP(=O)(/C=C/[C@H](NC(=O)[C@H](Cc1ccccc1)NC(=O)[C@H](CO[C@H]1O[C@@H]2O[C@@]3(C)CC[C@H]4[C@H](C)CC[C@@H]([C@H]1C)[C@@]24OO3)NC(=O)OCc1ccccc1)c1ccccc1)OCC` [Compound 2b, Benzyl ((S)-1-(((S)-1-(((S,E)-3-(diethoxyphosphoryl)-1-phenylallyl)amino)-1-oxo-3-phenylpropan-2-yl)amino)-1-oxo-3-(((3R,5aS,6R,8aS,9R,10S,12R,12aR)-3,6,9-trimethyldeca hydro-12H-3,12-epoxy[1,2]dioxepino[4,3-i]isochromen-10-yl)oxy)propan-2-yl)carbamate] has an EC50 (P. falciparum 3D7; 3D7, 48 h) of 2.03 nM.
